Series [1] concerns Streptococcus pyogenes C 203. Briefly: Mouse septicemia protection test (ip infection, survival to day 7). In kind it is in vivo, Female ICR mice. Conditions: mice infected ip with Streptococcus pyogenes C 203, Spearman-Kärber method. As for the experimental part: Female ICR mice (Harlan, Italy) weighing 14-16 g were infected intraperitoneally (ip) with 6.5 x 10^2 cells of Streptococcus pyogenes C 203 in 0.5 mL of saline supplemented with 1% peptone. Antibiotic 97518 was administered intravenously (iv) or subcutaneously (sc) within 10-15 min after infection. The 50% effective doses (ED50) were calculated by the Spearman-Kärber method (D.J. Finney. The Spearman-Kärber method. In: Statistical Methods in Biological Assay. (1952) pp. 524-530, Charles Griffin &Co., Ltd., London) from the percentage of animals surviving to day 7 at each dose.

Series [2] has as its system 997 Neisseria gonorrhoeae clin.is. Briefly: Microbroth dilution MIC (NCCLS M7-A5). In kind it is cell-based. Conditions: 10^4 CFU/ml, 35°C, 18-24 hours. As for the experimental part: (§1) Antimicrobial activity of antibiotic 97518 was determined by using microbroth dilution method with standard U-bottom 96-well plates according to The National Committee for Clinical Laboratory Standards (Methods for Dilution Antimicrobial Susceptibility Tests for Bacteria that Grow Aerobically - Fifth Edition; Approved Standard. NCCLS document M7-A5 Vol.20 No. 2). The strains used were clinical isolates or strains from American Type Culture Collection (ATCC). Powder of antibiotic 97518 was dissolved in DMSO; this solution was further diluted with distilled water. The media used were cation-adjusted Mueller Hinton broth (CAMHB) for Staphylococcus aureus, Moraxella catarrhalis, Enterococci; Todd Hewitt broth (THB) for Streptococcus pyogenes, Streptococcus pneumoniae. Inocula were 10^4 CFU/ml. All strains were incubated at 35°C in air. Incubation time was 18-24 hours. […]
In general terms: In broth dilution the organism is exposed to a series of concentrations in liquid medium.

The conditions of series [3]: in vivo.
Series [4] has as its system Staphylococcus aureus strain ATCC6538P (L100). Nature of the series: Macromolecular synthesis (incorporation of labelled precursors of DNA, RNA, protein and cell wall). It counts as cell-based. Particulars: 20 min at 37°C. As for the experimental part: Staphylococcus aureus strain ATCC6538P (L100) was grown overnight at 37 °C in a rotary bath in Iso-Sensitest Broth (Oxoid Ltd., Basingstoke, Hampshire, England). The culture was diluted up to an OD540 = 0.03 in a 1:1 (v/v) mixture of Iso-Sensitest broth : Davis Mingioli Broth (Difco Labs, Detroit, USA) added with 1g/l of KH2PO4, and was incubated at 37°C. To determine the antibiotic dose/response effects on RNA, DNA, protein and cell wall biosyntheses, the culture was divided in four parts when the optical density reached 0.4. Individual precursors of DNA ([…] ^3H-thymidine + 0.1g/l unlabelled adenosine), RNA (5 mCi/l ^3H-uracil), protein (10 mCi/l ^3H-leucine), and cell wall (1 mCi/l ^3H-N-acetylglucosamine + 3.5 mg/l unlabelled N-acetylglucosamine) biosyntheses were then added, resptectively, to each one of the four aliquots and, immediately after the addition, 100 µl of the resulting culture was dispensed in wells of microtiter plate (96 wells format), containing 10 µl of solutions of antibiotic 97518. After 20 min of incubation at 37°C, 0.1 ml ice-cold 20% (w/v) trichloroacetic acid was added to stop the incorporation. After 30 minutes at 4°, the samples were filtered on Filtermat A (Wallac) using an 96 well Wallac Cell Harvester. The Radioactivity not incorporated was washed away sequentially with water and ethanol. The radioactivity of the biopolymers was counted on the filters, using a Beta Plate System (Wallac).

Series [5] concerns 1652 Enterococcus faecium cl.isol. Van A. Briefly: Microbroth dilution MIC (NCCLS M7-A5). It counts as cell-based. On the set-up: unit not given here. Conditions: CAMHB, 10^4 CFU/ml, 35°C, 18-24 hours. As for the experimental part: as §1

Data on 2 molecules can be found in patent publication EP1481986A1, “Antibiotic 97518, pharmaceutically acceptable salts and compositions, and use thereof” (priority 2003, dated 2004).

Converted amounts (≈) assume the structure as drawn.

What is called ED50 is the midpoint of the dose-response relation.

For `C=C1NC(=O)[C@H](C(C)C)NC(=O)[C@H](NC(=O)/C(=C/C)NC(=O)[C@@H](N)[C@@H](C)CC)CSC[C@@H](C(=O)N[C@H]2C(=O)N3CCC[C@H]3C(=O)NCC(=O)N[C@H](C(=O)N[C@H](C(=O)N[C@@H]3CSC[C@@H]4NC(=O)CNC(=O)[C@@H](CSC[C@@H]5NC(=O)[C@H](Cc6c[nH]cn6)NC(=O)[C@@H](CSC[C@@H](C(=O)O)NC5=O)NC4=O)NC(=O)CNC(=O)CNC(=O)CNC(=O)[C@H](CCC(=O)O)NC3=O)[C@@H](C)O)CS[C@H]2C)NC(=O)[C@H](Cc2c[nH]c3ccccc23)NC1=O` [Antibiotic 97518], the ED50 in series [1] (administered intravenously (iv) within 10-15 min after infection) and in series [1] (administered subcutaneously (sc) within 10-15 min after infection) was 3.75 mg/kg throughout. In addition, the MIC in series [2] came to 64 mg/mL (≈ 29.2 mM); in series [5], 64. In addition, in series [3], the “not toxic up to (dose)” value was “up to 100 mg/Kg”. Further, the “other macromolecular syntheses (DNA, RNA, protein)” value in series [4] (at 2.5 µg/ml (same concentrations)) is “only partially inhibited”. For the same molecule, the “cell wall synthesis (3H-N-acetylglucosamine incorporation)” value in series [4] (at 2.5 µg/ml) is “blocked cell wall synthesis completely”.
As for nisin [reference compound], the “the four macromolecular syntheses (DNA, RNA, protein, cell wall)” value in series [4] (control experiments) is “inhibited all the four macromolecular syntheses at the same concentration”.
